Experimental data as given in patent publication US6407288B1, “Naphthylsalicylanilides as antimicrobial and antiinflammatory agents” (The Research Foundation of State University of New York, priority 2000, dated 2002).
In brackets after ≈: the same amount, converted by molar mass.

Experiments:
S. aureus = assay: MIC microdilution, gram positive; assay type: cell-based, Staphlococcus aureus; conditions: for MIC: Staphylococcus aureus
In short: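 Broth microdilution (modified NCCLS M7-A4): BHI for aerobes, supplemented half-strength BHI under 5% CO2/10% H2/N2 for anaerobes; 10 μL of ~1×10^8 CFU/mL inoculum; drugs 50 to 0.05 μg/assay from DMSO stock. Duplicates incubated 24–48 h; MIC = lowest concentration without visible growth. Staphylococcus R: coagulase-negative clinical isolate 00-045-1209.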

Str. pyo = assay: Mean Streptococcus MIC; assay type: cell-based; conditions: Streptococcus; Table 5, mean
In short: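 Modified NCCLS broth microdilution in duplicate: 10 μL inoculum from cultures diluted to about 1×10^8 CFU/mL, drug 50 to 0.05 μg/assay diluted from DMSO stock. Full-strength BHI for aerobes, supplemented half-strength BHI under 5% CO2/10% H2/N2 for anaerobes, 24–48 h; MIC as lowest concentration without visible growth.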

MIC (S. aureus; Table 2, Gram Positive) | MIC (S. aureus; second Table 5 (Example 5)) | MIC (Str. pyo) | SMILES | MIC S. aureus (S. aureus; second Table 5 (Example 5))
> 50 µg/mL |  |  | CCCCc1ccc(C(=O)c2ccc(O)c(C(=O)Nc3cccc(C(F)(F)F)c3)c2)cc1 [BBAmF, reference compound] | NE (NE indicates that the drug was not effective at a concentration >50 micrograms/ml)
> 50 µg/mL |  |  | O=C(c1ccc(-c2ccccc2)cc1)c1ccc(O)c(C(=O)Nc2cccc(C(F)(F)F)c2)c1 [BPAmF, reference compound] | NE (NE indicates that the drug was not effective at a concentration >50 micrograms/ml)
 | 3.1 µg/mL (≈ 7.12 µM) | 1 µg/mL (≈ 2.3 µM) | O=C(Nc1cccc(C(F)(F)F)c1)c1cc(C(=O)c2cccc3ccccc23)ccc1O [NA1mF] | 

The remaining lines, values behind:

SMILES | MIC (S. aureus; Table 2, Gram Positive) | MIC (S. aureus; second Table 5 (Example 5)) | MIC (Str. pyo) | MIC S. aureus (S. aureus; second Table 5 (Example 5))
N#Cc1cccc(NC(=O)c2cc(C(=O)c3ccc(-c4ccccc4)cc3)ccc2O)c1 [BPAmC, reference compound] | > 50 µg/mL |  |  | NE (NE indicates that the drug was not effective at a concentration >50 micrograms/ml)
N#Cc1cccc(NC(=O)c2cc(C(=O)c3cccc4ccccc34)ccc2O)c1 [NA1mC] |  | 12.5 µg/mL (≈ 31.9 µM) | 16.7 µg/mL (≈ 42.5 µM) | 
